Where two headings read alike, the source gives them in different places.
Experiments:
NSCLC cell lines = details: each NSCLC cell line, regardless of EGFR or KRAS mutation status; one 4-hr transfection
Method: (§1) NSCLC cell lines (201T and H1975) were transfected with CS3D or CS3M (cyclic STAT3 mutant decoy) at concentrations ranging from 0 nM to 600 nM. Using MTS assays, cell viabilities were assessed 72 hours later. Three independent experiments were performed, using 24-well plates and 4 wells/concentration.
(§2) To determine the concentration of CS3D required to inhibit cell viability, increasing concentrations of CS3D was transfected, and after 72 hours, MTS assays were used to assess cell viability. Data were normalized to cells treated with lipofectamine alone.
Dose-response experiments assessing the relative number of metabolically active viable cells were performed by transfecting cells with increasing concentrations of CS3D or CS3M, followed by performance of MTS assays. After 72 hours, 5 mg/ml of MTS reagent was added in the plates and incubated 37° C. for 20 minutes. The plates were then read at 490 nm in a Synergy microplate reader (BioTek, Winooski, Vermont) using Gen5 2.05 software. Data obtained following treatment with C3SD or CS3M were normalized to treatment with lipofectamine alone. […] To assess induction of apoptosis in response to CS3D, H1975 and 201T cells were transfected with 100 nM of CS3M or CS3D. […]

[1] = system: p-STAT3, p-NFkB, VEGF, CD31, IL-6, COX2 in lungs
201T cells [2] = assay: Soft agar colony forming assay, 201T; format: cell-based, human
Excerpt: (§3) 1 hr after treatment with EGF.
(§4) Following the transfection protocol described above, cells transfected with either CS3D or CS3M were detached from the plate using Trypsin-EDTA (Life Technologies) and seeded at a density of 2×10^4 cells/well (in a 6-well plate) in soft agar to determine the ability of cells to grow in an anchorage-independent setting. Sea Plaque Agarose (Lonza—Rockland, Maine) was used to prepare 0.8% base agarose layer and a 0.48% upper agarose layer containing the transfected cells. 1 ml of appropriate growth media was added into each well and incubated at growth conditions of 37° C. with 5% CO2. Media was replaced every 3-4 days and colony formation was monitored. After 15-20 days, the media was aspirated, and wells were incubated with crystal violet in 10% formalin for 1 h. Using a dissecting scope, colonies were photographed in a 6-well plate (with 4 quadrants/well) using ImageJ software analysis to automatically count colonies, using 35 pixels as a cut-off.

NNK-induced lung tumors = assay: NNK lung cancer chemoprevention pilot experiment; format: in vivo; details: 5 mg/kg IV 5 days a wk for 18 wks
Method: In a pilot experiment, 6 FVB/N mice were given 24 mg NNK (3 mg by ip injection, twice a wk×4 wks), followed by 6 wks rest, then IV treatment of 3 mice with either 5 mg/kg CS3D or CS3M 5 days a wk for 18 wks. […] With CS3M, lungs were filled with multiple invasive adenocarcinomas, while in mice receiving CS3D, tumor burden was reduced over 80%. H&E (hematoxylin and eosin) sections were taken of murine lungs exposed to NNK followed by treatment with CS3M or CS3D for 18 wks. Invasive carcinomas were prominent with CS3M and lacking with CS3D.

201T cells [3] = assay: MTS cell viability assay, 201T; format: cell-based, human
Method: as §1, §2
(§5) Fluorescently-labeled CS3M and CS3D (with iFluor) were also produced using enzymatic ligation as described above and used to assess uptake efficiency. Transfections of the cyclic oligonucleotides were performed using Lipofectamine 2000 (Life Technologies) in opti-MEM media (Life Technologies) as follows: Cells were plated at […] confluency, and exposed to transfection media containing the respective circularized oligonucleotides for 24 hours at 37° C. Post-transfection, cell recovery was initiated in media containing 10% heat-inactivated fetal bovine serum.
(§6) Dose-response experiments assessing the relative number of metabolically active viable cells were performed by transfecting cells with increasing concentrations of CS3D or CS3M, followed by performance of MTS assays. After 72 hours, 5 mg/ml of MTS reagent was added in the plates and incubated 37° C. for 20 minutes. The plates were then read at 490 nm in a Synergy microplate reader (BioTek, Winooski, Vermont) using Gen5 2.05 software. Data obtained following treatment with C3SD or CS3M were normalized to treatment with lipofectamine alone. […] To assess induction of apoptosis in response to CS3D, H1975 and 201T cells were transfected with 100 nM of CS3M or CS3D. After twenty four hours of transfection, cells were resuspended in annexin V-binding buffer, incubated with 5 μL of propidium iodide (BD Biosciences) and subjected to flow cytometric analysis, using a BD FACS Canto II Flow Cytometer.

H3225 cells = assay: MTS cell viability assay, H3225; format: cell-based, human
[4] = system: c-Myc mRNA in H1975 cells; assay: RT-qPCR of c-Myc mRNA after EGF, H1975; format: cell-based, human; details: single transfection, EGF 10 ng/ml 1.5 hr
A549 cells = system: A549 cells
Method: as §1, §2
Fluorescently-labeled CS3M and CS3D (with iFluor) were also produced using enzymatic ligation as described above and used to assess uptake efficiency. Transfections of the cyclic oligonucleotides were performed using Lipofectamine 2000 (Life Technologies) in opti-MEM media (Life Technologies) as follows: Cells were plated at […] confluency, and exposed to transfection media containing the respective circularized oligonucleotides for 24 hours at 37° C. […]
Dose-response experiments assessing the relative number of metabolically active viable cells were performed by transfecting cells with increasing concentrations of CS3D or CS3M, followed by performance of MTS assays. […] The plates were then read at 490 nm in a Synergy microplate reader (BioTek, Winooski, Vermont) using Gen5 2.05 software. […]

H1975 cells [5] = assay: Soft agar colony forming assay, H1975; format: cell-based, human
Excerpt: as §3, §4

H1975 cells [6] = assay: MTS cell viability assay, H1975; format: cell-based, human; details: for IC50: MTS 72 hours
Method: as §1, §2, §5, §6

[7] = system: M1 macrophages, M2 macrophages, MDSCs; assay: Flow cytometry of immune cells isolated from lungs of NNK mice; format: in vivo
Excerpt: STAT3 also plays a central role in immune evasion. STAT3 specifically orchestrates immunosuppression by promoting M2 macrophage and myeloid-derived suppressor cells (MDSCs) activity while suppressing M1 macrophage function [Su et al. Int. J. Mol. Science 19: pll:E1803, 2018]. Thus STAT3 inhibition by CS3D should favor an antitumor immune response by enhancing M1 macrophage activity.
Lungs from mice were digested with RPMI media containing collagenase and DNase to obtained single cell suspension. The cells were counted and 1×10^6 cells were staining with fluorescent labeled CD45, CD11b, MHC II, Ly6C and F4/80. The labeled cells were gated and data acquired on LSR fortessa (BD Biosciences) and further analysed by Flowjo.

[8] = 8 weeks post-treatment, vs CS3M
[9] = NNK 4 weeks then 1 week of drug administration

CS3D (DNA GATTTACGGGAAATGCSCATTTCCC; cyclic decoy with two hexaethylene glycol linkers, further chemistry not given here)
IC50 (NSCLC cell lines): ~300 nM
IL-6 levels in the airways ([1]; 8 weeks after completion of therapy, vs CS3M): upregulated
COX-2 expression ([1]; 8 weeks after end of treatment, vs CS3M): increase
VEGF staining in the airways [1, 8]: decrease
activated phospho-STAT3 protein [1, 8]: long-term reduction
phospho-NF-kB activation [1, 8]: decrease
endothelial marker CD31 expression ([1]; premalignant stage, data not shown): suppresses
disruption of anchorage-independent growth (201T cells [2]; 300 nM single transfection, at 20 days, 201T, compared to CS3M): 50%
reduction of colony formation in soft agar (201T cells [2]; one transfection, 201T (FIG. 4A)): 55%
toxic effects (NNK-induced lung tumors): no discernable toxic effects
reduction of tumor burden (NNK-induced lung tumors; 24 mg NNK, 6 wks rest, vs CS3M): over 80%
inhibition in proliferation (201T cells [3]; 0.3 μM transfection, 201T, relative to CS3M): 50%
IC50 (201T cells [3]; 201T (WT EGFR), MTS 72 hours, read-out: IC50): ~300 nM
IC50 (201T cells [3]; 201T, EGFR WT, KRAS WT, MTS at 72 hours after transfection, read-out: CS3D IC50): 300 nM
IC50 (H3225 cells): 300 nM
inhibition in mRNA level of c-Myc [4]: 25-30%
toxicity in normal cells (normal lung fibroblasts): minimal
IC50 in normal lung fibroblasts and bronchial epithelial cells relative to tumor cells (normal lung fibroblasts; fold higher than in NSCLC cell lines): 100 fold
IC50 (A549 cells): 300 nM
disruption of anchorage-independent growth (H1975 cells [5]; 300 nM single transfection, at 15 days, H1975, compared to CS3M): 70%
reduction of colony formation in soft agar (H1975 cells [5]; one transfection, H1975 (FIG. 4A)): 65%
inhibition in proliferation (H1975 cells [6]; 0.3 μM transfection, H1975, relative to CS3M): 50%
IC50 (H1975 cells [6]; H1975 (mutant EGFR), read-out: IC50): ~300 nM
IC50 (H1975 cells [6]; H1975, EGFR mutant (L858R/T790M), KRAS WT, read-out: CS3D IC50): 300 nM
M2 macrophages [7, 9]: 5.53%
MDSCs [7, 9]: 14.2%
proportion of M1 macrophages in the lung TME ([7]; NNK 4 weeks then 1 week of drug, vs CS3M): increasing
